These results are taken from PubChem BioAssay (NCI).

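Cultured in 96-well plates, cells were exposed to test compound for 48 hours across five concentrations. TGI denotes the concentration required for complete inhibition of growth.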

Some test systems named below: XF 498 CNS; LXFL 529 NSCLC; DU-145 prostate; MDA-MB-231 breast; MDA-MB-435; MDA-N; PC-3 prostate; T-47D breast; HS 578T breast.
Experiment in all cases: NCI anticancer screen, dose series, 48 h

The compound `Cc1ccccc1-c1nc2c(C(=O)NCCN(C)C)cccc2[nH]1` yielded a TGI in the assay on XF 498 CNS above 100 µM.

In the assay on LXFL 529 NSCLC, `Cc1cc(=O)[nH]c(NN2C(Cl)C(=O)C2c2ccc([N+](=O)[O-])cc2)n1` (stereo not given) came in with a TGI of 20.8 µM.

For the compound `COc1ccc(-c2oc3cc(O)cc(O)c3c(=O)c2OC)cc1`, the TGI in the assay on DU-145 prostate, in the assay with MDA-MB-231 breast, with MDA-MB-435, in the assay on MDA-N, in the assay on PC-3 prostate and with T-47D breast was above 100 µM in each case.

Turning to `C=CCP(=O)(CC=C)C(Cl)Cl`, the TGI with DU-145 prostate, in the assay on HS 578T breast, in the assay with MDA-MB-231 breast, in the assay on MDA-N, in the assay on PC-3 prostate and with T-47D breast was above 100 µM throughout.

Take `COc1cccc(N[C@@H]2c3cc4c(cc3C(c3cc(OC)c(O)c(OC)c3)[C@H]3C(=O)OCC32)OCO4)c1` (stereo not given in full): in the assay with XF 498 CNS, the TGI came out at 23.9 µM.
